The numbers were not newly measured in patent publication US8158147B2, “Modified release formulations of at least one form of tramadol” (priority 2002, dated 2012), which cites them from elsewhere.

Read-outs that look alike come from different tables or passages of the source.

The subject of data set [1] is osteoarthritis. The settings on record: Study No. 058; 6 weeks; rofecoxib 12.5 mg, Nabumetone 1500 mg.
Data set [2] has as its system osteoarthritis. Particulars: 12 weeks, celecoxib 100 mg BID, Naproxen 500 mg BID.

On to `COc1ccc2cc(CCC(C)=O)ccc2c1` [Nabumetone], for which the “WOMAC pain walking on a flat surface, mean difference vs placebo” value in the data set on osteoarthritis [1] is listed as 10 mm.

In the case of `COc1ccc2cc([C@H](C)C(=O)O)ccc2c1` [Naproxen], the “LS mean difference in pain VAS change from baseline vs placebo” value in the data set on osteoarthritis [2] (Study No. 020) is 7.6 mm; in the data set with osteoarthritis [2] (Study No. 054), 11.2 mm.

As for `CS(=O)(=O)c1ccc(C2=C(c3ccccc3)C(=O)OC2)cc1` [rofecoxib, Rofecoxib], the “WOMAC pain walking on a flat surface, mean difference vs placebo” value in the data set on osteoarthritis [1] was 9.0 mm.
